The values below come from patent publication US20180028424A1, “COMPOSITIONS FOR IMPROVING THE HEALTH OF HAIR, SKIN, AND NAILS” (FYBRANDS CORP., priority 2015, published 2018).

The nature of data set [1]: solubility of silibinin in acetone. As to conditions: dissolved at 40-50° C. in Example 1. The format is physicochemical. The procedure:
Silibinin is soluble in acetone. We evaluated the possibility that silibinin could be first dissolved in acetone and then put into solution with an oil carrier. Since acetone evaporates to completion out of any open system, it could be removed leaving the silibinin in solution. One should keep in mind that acetone is incredibly flammable, and methods for removing acetone should be chosen carefully.
Briefly, a total desired amount of silibinin was dissolved into acetone at moderate temperature (40-50° C.). Capric/capryllic triglyceride was then added with mixing until completely mixed. […] The solution was cooled with stirring. Rosemary EO 1 was added once the temperature was below 50° C., and the product was poured into dispensing containers for use by test subjects.

Data set [2] is described as follows: solubility of silibinin in water. The format is physicochemical. The text has this:
In certain embodiments, the disclosure provides compositions to deliver the active ingredient to the root bulb of the hair follicle. Silibinin is not soluble in water. Creating a cream formulation could possibly lead to clogging of pores at the site of the hair follicle, which could negatively affect restoration of the follicle. In certain aspects, the present disclosure relates to delivery of silibinin using oil-based formulations. Oil is absorbed into the stratum corneum and deeper layers of the skin where the root bulb cells are located.

For `COc1cc(C2Oc3cc([C@H]4Oc5cc(O)cc(O)c5C(=O)[C@@H]4O)ccc3OC2CO)ccc1O` (some centres unmarked) [Silibinin], the solubility in acetone entry in data set [1] is “soluble”. Also, the solubility in water result in data set [2] was “not soluble”.
